Key:
[1] = human, in vivo, iv, 600 mg/m^2, 1 h
Experimental: (§1) Blood samples were taken following drug administration and the plasma extracted immediately and stored. Blood samples for determination of Cilengitide were collected at the following time points: day 1 immediately before Cilengitide infusion and after 1 h (end of infusion); day 8 immediately before Cilengitide infusion and after 1 h (end of infusion) and 0.5 h, 1 h, 2 h, 3 h, 4 h, 7 h, and 11 h after end of Cilengitide infusion. Blood samples for gemcitabine analysis were collected in both treatment arms on day 1 and day 8 at the following time points: 0 h (immediately before start of infusion of gemcitabine), 0.5 h (at the end of infusion of gemcitabine) and 0.5 h, 1.5 h, 2.5 h, and 3.5 h after end of gemcitabine infusion.
(§2) Analysis was carried out at a single laboratory using high-performance liquid chromatography-tandem mass spectrometry. Calculation of pharmacokinetic parameters was performed according to non-compartmental standard methods. Pharmacokinetic analyses included maximum plasma concentration (Cmax), time to maximum concentration (tmax), area under the curve from time zero to the last sampling time (AUC0-t), area under the curve from time zero to infinity (AUC0-∝), apparent elimination rate constant (λz), apparent terminal elimination half-life associated with the negative terminal slope (t1/2), total body clearance of drug from plasma (CL) and the volume of distribution at steady state (Vss). The lower limits of quantification for Cilengitide and gemcitabine in plasma were 1 ng/mL and 50 ng/mL, respectively. For the plasma quality control samples of Cilengitide the interbatch coefficient of variation (CV) was 3.4% to 9.2% and the interbatch accuracy was 97% to 104%. For the plasma quality control samples of gemcitabine, the interbatch CV was 5.6% to 9.4% and the interbatch accuracy was 93.5% to 104%.

clinical = settings: human, in vivo, iv
Experimental: as §1, §2

[2] = test system: patients with advanced solid tumors; settings: in vivo; cited from earlier work
[3] = ancillary pharmacokinetic study, plasma, HPLC-MS/MS; settings: for Tmax: human, iv
Experimental: as §1, §2

[4] = test system: patients with advanced pancreatic cancer; settings: cited from earlier work
[5] = test system: patients with advanced unresectable pancreatic cancer; test: randomized phase II trial: survival, PFS and tumor response; assay type: in vivo, human
Excerpt: Patients with advanced unresectable pancreatic cancer were enrolled. Eligibility criteria included age ≥ 18 years, diagnosed (histologically or cytologically) with or without metastases, at least one bidimensionally measurable lesion, a Karnofsky performance score of ≥ 70%, a life expectancy of at least 12 weeks, and written informed consent. The main exclusion criteria were prior chemotherapy and/or major surgery related to pancreatic cancer before study entry with the exception of palliative surgery, brain metastases, a pancreatic tumor of neuroendocrine origin, second primary malignancies, inadequate liver and renal functions, inadequate bone marrow reserve, a history of cerebrovascular accident or repeated transient ischemic attacks and cardiac or cardiovascular abnormality.
This was a multi-national, open-label, controlled, randomized, parallel-group, phase II pilot study, conducted in 20 centers in 7 countries (Austria, Belgium, France, Germany, Spain, Switzerland, and the United Kingdom). Eligible patients were randomized to receive either Cilengitide and gemcitabine or gemcitabine alone. The Pocock minimization method [23] was applied for randomization using factors for center and for locally advanced or metastatic disease following the definition according to the tumor-node-metastasis (TNM) classification and histopathological grading system of the International Union Against Cancer. Cilengitide (600 mg/m^2) was administered twice weekly as a 1 hour intravenous (IV) infusion for 4 consecutive weeks (1 cycle). Gemcitabine (1000 mg/m^2) was administered as a weekly 30-minute IV infusion once weekly for 3 weeks followed by 1 week of rest (1 cycle). In the drug combination group, on the days on which both drugs were given, Cilengitide was given immediately prior to gemcitabine. The planned treatment period was 24 weeks (6 cycles), but patients responding to either regimen could continue treatment up to a maximum of 48 weeks.
Overall survival was defined as the time from the start of study drug administration to death. PFS was defined as the time interval between the date of randomization and the date of disease progression or death whichever came first. If neither was observed the patient was censored at the date of the last follow-up examination. A computed tomography or magnetic resonance imaging scan of target lesions was performed at baseline, weeks 9 and 17, and at the end of treatment to assess tumor size and treatment response. Unscheduled scans were conducted to confirm disease progression. Tumor response was assessed according to the amended World Health Organization (WHO) criteria for response based on the size of target lesions.
The sample size of the trial was determined by clinical feasibility. No inferential statistical comparison of the two treatment arms was planned. The aim was to obtain information on safety and feasibility as well as trends in efficacy by determination of overall survival as primary and progression-free survival (PFS), response rate, quality of life (QoL), effects on biological markers of disease (CA 19.9) and angiogenesis (vascular endothelial growth factor and basic fibroblast growth factor) and safety as secondary endpoints. Confidence intervals were presented at the 95%-confidence level. The data of this phase II pilot- and feasibility study, are presented in a descriptive manner. The primary analysis of survival (time to death from any cause) was conducted using the intention-to-treat (ITT) population. An additional supportive analysis using the Per Protocol (PP) population was conducted. The secondary objectives were to determine PFS, response rates, safety and tolerability, QoL, biological response, and pharmacokinetics.

[6] = test system: patients with advanced unresectable pancreatic cancer; test: randomized phase II trial: safety, adverse events (NCI-CTC); assay type: in vivo, human
Excerpt: This was a multi-national, open-label, controlled, randomized, parallel-group, phase II pilot study, conducted in 20 centers in 7 countries (Austria, Belgium, France, Germany, Spain, Switzerland, and the United Kingdom). Eligible patients were randomized to receive either Cilengitide and gemcitabine or gemcitabine alone. The Pocock minimization method was applied for randomization using factors for center and for locally advanced or metastatic disease following the definition according to the tumor-node-metastasis (TNM) classification and histopathological grading system of the International Union Against Cancer. Cilengitide (600 mg/m^2) was administered twice weekly as a 1 hour intravenous (IV) infusion for 4 consecutive weeks (1 cycle). Gemcitabine (1000 mg/m^2) was administered as a weekly 30-minute IV infusion once weekly for 3 weeks followed by 1 week of rest (1 cycle). In the drug combination group, on the days on which both drugs were given, Cilengitide was given immediately prior to gemcitabine. The planned treatment period was 24 weeks (6 cycles), but patients responding to either regimen could continue treatment up to a maximum of 48 weeks. […] Any change was based on patient hematological and/or non-hematological parameters on the intended day of treatment as well as the maximum drug-induced toxicity grade observed between dosing. The before treatment and 4-weekly evaluations included a physical examination and laboratory investigations (blood counts, biochemical profile, urinalysis). Assessments were also made of Karnofsky performance status and vital signs. Before the start of the study, at the end of the study and when clinically indicated during the study chest X-rays and 12-lead electrocardiograms were performed. Adverse events were monitored and evaluated for frequency, duration, severity (mild, moderate, severe, life-threatening) and possible relationship to study medication. Toxicity was assessed according to NCI-CTC Version 2. All adverse events whether reported by a patient or observed by an investigator or study nurse were documented, regardless of whether they were considered to be drug-related, together with any medical intervention.

[7] = test system: patients with advanced unresectable pancreatic cancer; test: randomized phase II trial: quality of life (EORTC QLQ-C30); assay type: in vivo, human; settings: QLQ-C30, change from baseline
Experimental: Quality of life (QoL) was assessed using the European Organization for Research and Treatment of Cancer (EORTC) QoL core questionnaire (QLQ-C30, Version 3.0) in conjunction with the EORTC Pancreatic Module ([…] is a self-administered 30-item questionnaire and incorporates 5 functional scales, 3 symptom scales and a global health/QoL scale. EORTC-PAN26 is a 26-item questionnaire addressing pancreas cancer specific symptoms and the side effects from conventional therapy. Assessments were made at weeks 1, 9, 17, 25 and at the end of treatment. QoL data were analyzed descriptively due to the small number of patients enrolled in the study.

[8] = Cilengitide 600 mg/m^2 1 h IV infusion with gemcitabine, plasma, n 10
[9] = in combination with gemcitabine
[10] = WHO criteria, ITT, listed as gemcitabine alone
[11] = all adverse events during the treatment period
[12] = onset during the treatment phase
[13] = possibly related to treatment, listed as gemcitabine alone

Compound: CC(C)[C@H]1C(=O)N[C@@H](CCCN=C(N)N)C(=O)NCC(=O)N[C@@H](CC(=O)O)C(=O)N[C@H](Cc2ccccc2)C(=O)N1C [Cilengitide, Cyclo-l-Arg-l-Asp-d-Phe-N (Me) l-Val]
- mean concentration at the end of infusion [1]: 62.182 ± 12.345 µg/mL
- level at 1 h (clinical; 600 mg/m^2, mean concentration at the end of infusion): 75.4 ± 31.5 µg/mL
- half-life (clinical; t1/2, Geomean): ~3 h
- dose limiting toxicity [2]: no dose limiting toxicity was recorded
- CL, Geomean [3, 8]: 54.2 mL/min/m^2
- Vss, Geomean [3, 8]: 12100 mL/m^2
- Tmax ([3]; plasma): 1 h

Compound: bevacizumab: anti-VEGF-agent, given in combination with gemcitabine
- median overall survival time [4, 9]: 8,8 months
- response rate [4, 9]: 21%

Compound: Nc1ccn([C@@H]2O[C@H](CO)[C@@H](O)C2(F)F)c(=O)n1 [Gemcitabine, gemcitabine]
- 1-year survival (95% CI) ([5]; ITT population): 0.24 (0.11–0.37)
- Median PFS (95% CI) ([5]; ITT population): 115 (62–178) days
- Median survival (95% CI) ([5]; ITT population): 234 (137–290) days
- Number of deaths ([5]; ITT population): 37
- median PFS time ([5]; ITT population): 3.8 months
- median overall survival ([5]; ITT population): 7.7 months
- Complete response, % of patients ([5]; WHO criteria, ITT): 2%
- Complete response, No. patients ([5]; WHO criteria, ITT): 1
- Partial response, % of patients ([5]; WHO criteria, ITT): 12%
- Partial response, No. patients ([5]; WHO criteria, ITT): 5
- Progressive disease, % of patients ([5]; WHO criteria, ITT): 23%
- Progressive disease, No. patients ([5]; WHO criteria, ITT): 10
- Response rate, % of patients ([5]; WHO criteria, ITT): 14%
- Response rate, No. patients ([5]; WHO criteria, ITT): 6
- Stable disease, % of patients ([5]; WHO criteria, ITT): 42%
- Stable disease, No. patients ([5]; WHO criteria, ITT): 18
- Tumor growth control rate, % of patients ([5]; WHO criteria, ITT): 56%
- Tumor growth control, No. patients ([5]; WHO criteria, ITT): 24
- Response rate, % of patients [5, 10]: 14%
- Tumor growth control rate, % of patients [5, 10]: 56%
- Condition reduced, number of events ([6]; SAE, Grade 3, relationship not assessable, considered possibly related): 1
- Gamma-glutamyl transferase elevations (% of patients) [6, 11]: 29%
- Nausea (% of patients) [6, 11]: 50%
- Shivering (% of patients) [6, 11]: 7%
- ascites (% of patients) [6, 11]: 26%
- cholestasis (% of patients) [6, 11]: 26%
- dyspepsia (% of patients) [6, 11]: 29%
- dyspnea (% of patients) [6, 11]: 14%
- fever (% of patients) [6, 11]: 24%
- jaundice (% of patients) [6, 11]: 19%
- urinary tract infection (% of patients) [6, 11]: 21%
- number of possibly related serious adverse events ([6]; in vivo): 8
- patients with possibly related adverse events, % ([6]; in vivo): 76%
- patients with possibly related adverse events, number ([6]; in vivo): 32
- total number of possibly related adverse events ([6]; in vivo): 278
- AE, Grade 1/2, No. of events [6, 12]: 617
- AE, Grade 1/2, Pts (%) [6, 12]: 17%
- AE, Grade 3/4, No. of events [6, 12]: 138
- AE, Grade 3/4, Pts (%) [6, 12]: 83%
- AE, all grades, No. of events [6, 12]: 755
- AE, all grades, Pts (%) [6, 12]: 100%
- SAE, all, No. of events [6, 12]: 64
- SAE, all, Pts (%) [6, 12]: 71%
- SAE, all, Pts (%) ([6]; onset during the treatment phase, listed as gemcitabine alone): 71%
- Epistaxis, number of events ([6]; possibly related SAE, Grade 2): 1
- Exanthema, number of events ([6]; possibly related SAE, Grade 2): 1
- Pneumonia, number of events ([6]; possibly related SAE, Grade 2): 1
- Anorexia, number of events ([6]; possibly related SAE, Grade 3): 1
- Depression, number of events ([6]; possibly related SAE, Grade 3): 1
- Dyspnea, number of events ([6]; possibly related SAE, Grade 3): 2
- Anemia (% of patients) ([6]; possibly related to treatment): 26%
- Anorexia (% of patients) ([6]; possibly related to treatment): 14%
- Asthenia (% of patients) ([6]; possibly related to treatment): 10%
- Edema (% of patients) ([6]; possibly related to treatment): 5%
- Fatigue (% of patients) ([6]; possibly related to treatment): 19%
- Hair changes (% of patients) ([6]; possibly related to treatment): 12%
- Headache (% of patients) ([6]; possibly related to treatment): 0%
- Leukopenia (% of patients) ([6]; possibly related to treatment): 26%
- Nausea (% of patients) ([6]; possibly related to treatment): 38%
- Peripheral edema (% of patients) ([6]; possibly related to treatment): 5%
- Shivering (% of patients) ([6]; possibly related to treatment): 2%
- Sweating increased (% of patients) ([6]; possibly related to treatment): 2%
- Thrombocytopenia (% of patients) ([6]; possibly related to treatment): 33%
- Vomiting (% of patients) ([6]; possibly related to treatment): 26%
- dyspepsia (% of patients) ([6]; possibly related to treatment): 7%
- fever (% of patients) ([6]; possibly related to treatment): 10%
- Leukopenia (% of patients) [6, 13]: 26%
- Shivering (% of patients) [6, 13]: 2%
- median survival time ([4]; gemcitabine alone): 5.7 months
- median maximum plasma concentration ([3]; gemcitabine alone group, Week 1, n = 5): 10600 ng/mL
- median maximum plasma concentration ([3]; gemcitabine alone group, Week 2, n = 5): 6060 ng/mL
- median maximum plasma concentration ([3]; gemcitabine in the Cilengitide and gemcitabine group, Week 1, n = 12): 6960 ng/mL
- median maximum plasma concentration ([3]; gemcitabine in the Cilengitide and gemcitabine group, Week 2, n = 11): 7490 ng/mL
- Tmax ([3]; plasma, 1000 mg/m^2): 0.5 h
- patients reporting an improved global health status ([7]; week 9): 50%
- patients reporting an improved global health status ([7]; week 17): 47%

Reference: paper PMC1764757 (BMC Cancer, 2006)
